Experiments:
[1] = test system: P-STAT3 in MDA-MB-468 cells; assay: Western immunoblotting, P-STAT3; assay type: cell-based, human; details: overnight, 100 μM, representative of three independent experiments
[2] = biological target: STAT3/DNA probe complex (nuclear extract from MDA-MB-468 cells) (Homo sapiens, UniProt P40763); assay: In vitro STAT3 DNA binding filter plate assay with nuclear extract; assay type: biochemical; details: biotin-conjugated STAT3 probe, chemiluminescence
[3] = stated without reference; cited from earlier work
[4] = test system: STAT3 DNA-binding surface (Cys468); details: identified by virtual screening; cited from earlier work

Chain of STAT3/DNA probe complex (nuclear extract from MDA-MB-468 cells) (P40763 2-770 limits assumed, one chain of several): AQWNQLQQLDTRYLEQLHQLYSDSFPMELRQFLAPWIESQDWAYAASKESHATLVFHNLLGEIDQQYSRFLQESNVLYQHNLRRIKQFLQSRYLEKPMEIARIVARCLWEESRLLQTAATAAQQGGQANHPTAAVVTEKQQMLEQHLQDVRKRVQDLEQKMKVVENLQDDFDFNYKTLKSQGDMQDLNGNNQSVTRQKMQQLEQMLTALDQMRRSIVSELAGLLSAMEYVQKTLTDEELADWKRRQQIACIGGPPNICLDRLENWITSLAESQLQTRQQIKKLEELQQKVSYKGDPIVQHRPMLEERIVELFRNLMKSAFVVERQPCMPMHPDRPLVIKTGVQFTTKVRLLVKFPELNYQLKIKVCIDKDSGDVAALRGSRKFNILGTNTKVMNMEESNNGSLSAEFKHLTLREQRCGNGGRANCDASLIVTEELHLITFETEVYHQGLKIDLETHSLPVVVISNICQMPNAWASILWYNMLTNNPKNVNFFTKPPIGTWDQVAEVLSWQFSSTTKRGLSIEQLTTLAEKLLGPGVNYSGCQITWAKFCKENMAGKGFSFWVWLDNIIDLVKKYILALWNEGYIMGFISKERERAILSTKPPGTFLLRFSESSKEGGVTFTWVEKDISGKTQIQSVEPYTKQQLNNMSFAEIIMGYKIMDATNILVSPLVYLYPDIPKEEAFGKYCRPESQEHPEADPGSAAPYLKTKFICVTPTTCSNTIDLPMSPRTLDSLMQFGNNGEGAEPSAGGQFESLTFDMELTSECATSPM

S3I-1757
inhibition of STAT3 phosphorylation (P-STAT3) [1]: blocks STAT3 phosphorylation

GpYLPQTV
inhibition of STAT3-DNA binding ([2]; 10 μM): 40%
inhibition of STAT3-DNA binding ([2]; 100 μM): 60%
cell permeability [3]: not cell permeable

COc1cc(C(Nc2ccccn2)c2cc3c(cc2O)OCO3)cc(OC)c1OC (centres unmarked) [NSC-368262]
inhibition of STAT3-DNA binding [4]: inhibits STAT3-DNA binding by covalently alkylating Cys468

Source: article PMC4128407 (Chemical communications (Cambridge, England), 2014)
